This is an account of results in patent publication US6696303B2, “Identifying substances using cells that express p75NTR” (Trustees of Boston University, priority 1996, dated 2004).

In series [1] the target is T1, p75^NTR (Homo sapiens, UniProt P08138).
T1 construct: expressed in transfected cells; host or cells: NIH 3T3 fibroblasts, permanently transfected (p75NTR-NIH 3T3 cells)
T1 sequence (P08138 29-427): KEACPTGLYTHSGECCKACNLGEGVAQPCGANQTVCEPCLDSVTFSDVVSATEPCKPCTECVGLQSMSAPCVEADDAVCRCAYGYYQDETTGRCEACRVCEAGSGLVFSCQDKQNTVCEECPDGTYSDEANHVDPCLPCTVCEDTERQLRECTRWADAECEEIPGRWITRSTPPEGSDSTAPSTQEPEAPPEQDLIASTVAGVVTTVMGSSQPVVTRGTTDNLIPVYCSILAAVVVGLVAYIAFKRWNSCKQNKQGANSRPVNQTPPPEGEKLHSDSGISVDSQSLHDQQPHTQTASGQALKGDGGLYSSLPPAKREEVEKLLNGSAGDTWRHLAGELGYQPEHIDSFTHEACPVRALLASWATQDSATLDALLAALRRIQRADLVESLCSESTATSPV
Conditions: lysine at position 34 replaced by alanine; vs NGF; cited from earlier work.

Series [2] has as its system p75^NTR. The series is described as follows: UV irradiated melanocytes treated with anti p75NTR antisense oligonucleotides. The class given is cell-based. Here is the method:
Melanocytes were UV irradiated with 25 mJ/cm^2 and then supplemented either with 10 μM anti p75^NTR anti sense phosphothioate oligonucleotides ([…] SEQ ID NO.: 5) directed against the 3′ end of the p75^NTR coding region, or the same concentration of sense oligonucleotides as a negative control.
Immunohistochemical analysis confirmed that p75^NTR was not expressed in cells treated with anti-p75^NTR anti-sense oligonucleotides, but was expressed in the sense treated cells. Within 24 hours after irradiation; the following was observed the following were observed: […]

In the next series the test system is Bax. The series is described as follows: Bax level in melanocytes by Western blot with anti-Bax antibody. The class given is cell-based, human. The following applies: for increased Bax level as compared to the 40-1 peptide: 25 μM, four days; for Bax induction: 25 uM, within 4 days, vs 40-1 control fragment or irrelevant protein. As for the experimental part: To investigate the mechanism of β-amyloid-mediated melanocyte death, Bax levels in melanocytes treated with 25 uM of 1-40 or 25-35 β-amyloid peptides was examined. Within 4 days of treatment, Bax was induced 3 fold in melanocytes stimulated either with the β-amyloid 1-40 or 25-35 fragments as compared to melanocytes treated with the 40-1 control fragment or an irrelevant HPLC purified protein of similar size.
Melanocytes were maintained as above. Four days after addition of 25 μM of β-amyloid fragments 1-40, 40-1 or 25-35; or 25 μM of HPLC-purified bovine corticotropin releasing factor (CRF) (Bachem Calif.) (MW 4.7 kD) as an additional negative control, cells were extracted in RIPA buffer (50 mM Tris-HCl, 0.15 M NaCl, 0.5% sodium deoxycholate, 1% TRITON®X-100) in the presence of 1 μ/ml aprotinin and 75 μg/ml phenylmethylsulfonyl fluoride (PMSF), sonicated for 1-3 seconds and centrifuged. 40 μg of protein per lane were separated on 12% SDS/PAGE and blotted onto nitrocellulose paper (overnight, 25V). To verify equal loading a duplicate 13% SDS/PAGE was performed and stained with Coomasie Blue R250 stain. Blots were incubated with anti-Bax antibody (1:1000 dilution) (primary antibody), followed by horseradish peroxidase-conjugated goat anti-rabbit IgG (secondary antibody) (1:500 dilution) (Bio-Rad Laboratories, Hercules, Calif.). Bound antibodies were detected using enhanced chemiluminescence kit (Amersham Corp.). Autoradiograms were scanned into a Macintosh II is computer using the Of to TM program (Light source Computer Images, Inc.). Scan analysis was performed with manual definition of bands using Scan Analysis TM 68000 program (Biosoft, Cambridge, UK).
On the technique in general: Immunoblotting shows a protein as a band on a membrane.

A further series concerns normal human melanocytes. The series is described as follows: melanocyte cell yield and morphology after β-amyloid supplementation. The series is classed as cell-based. Here is the method: To determine the effect of β-amyloid on normal human melanocytes, cultures were supplemented with increasing concentrations (0.025-50 uM) of HPLC-purified β-amyloid fragment corresponding to amino acids 1-40. A peptide containing the first 40 amino acids synthesized in reverse order (40-1) was used as a negative control.
Melanocytes were maintained in serum free Medium 199 (Gibco BRL Gaithersburg, Md.) supplemented with epidermal growth factor (10 ng/ml) (Collaborative Research), insulin (10 μg/ml) (Sigma), triiodothyronine (10^−9 M) (Collaborative Research), transferrin (10 μg/ml) (Sigma), hydrocortisone (1.4×10^−6 M) (Calbiochem), cholera toxin (10^−9 M) (Calbiochem) and basic fibroblast growth factor (basic FGF) (10 ng/ml) (Collaborative Research). Two days after plating cells were supplemented with increasing concentrations of β-amyloid 1-40 or the control peptide 40-1 (0-50 μM) (Bachem Calif., Torrance, Calif.).

Another series has as its system melanocytes. As to the kind of experiment: NGF supplementation of β-amyloid-treated melanocytes. The class given is cell-based, human. Conditions: for percent of live cells (spread): 48 hours. Here is the method: Melanocytes were maintained as above in hormone supplemented medium lacking hydrocortisone. Cells were supplemented with 25 μM of β-amyloid 1-40 in the presence of 50 ng/ml NGS or diluent.
Photographs of representative fields were obtained and the percent of the live cells (spread) was determined 48 hours after addition of β-amyloid and NFG or β-amyloid and diluent.
At least 400 cells were counted in each condition.

For a further series, the system named is p75^NTR 3T3 cells. As to the kind of experiment: cell yield of p75NTR 3T3 cells with β-amyloid and cyclic peptide. The class given is cell-based. Here is the method: p75^NTR 3T3 cells were maintained in serum free medium supplemented with 200 nM β-amyloid 1-40, 200 nM cyclic peptide […], (SEQ ID NO: 4) 20 nM β-amyloid 1-40 and 200 nM cyclic peptide or diluent alone.

Series [3] addresses T1, p75^NTR. The series is described as follows: cross linking of 125I β-amyloid 1-40 and immunoprecipitation with anti p75NTR antibodies. The following applies: p75NTR-NIH 3T3 cells, disuccinimidyl suberate cross linking. The class given is binding. As for the experimental part:
p75^NTR-NIH 3T3 cells were maintain in DMEM supplemented with 10% FBS in the presence of penicillin (45 ng/ml), streptomycin (68 ng/ml), and hygromycin B (17.5 ng/ml). At 80% confluence cells were lifted from the dish with EDTA and incubated in suspension with 5 uCi ^125I labeled β-amyloid 1-40 at 4° C. for 1 hour in DMEM. After incubation, 1 mM of disuccinimidyl suberate was added for 30 minutes. Following centrifugation cells were lysed with RIPA buffer (50 mM Tris HCl, pH 8.0, 0.15 M NaCl 0.5% sodium deoxycholate 4, 5 mM MgC2, 1% TRITON®X-100, 1 mM phenylmethylsulfonylfluoride, and 1 μg/ml aprotinin), sonicated for 1-3 seconds and immunoprecipitated with anti p75^NTR antibodies (mouse monoclonal IgGl, Cedarlane Laboratories Ltd., Ontario, Canada) or mouse IgG as control for 16 hours at 4° C. in the presence of 15 ul of protein G plus protein A agarose and 1M NaCl adjusted to pH 8.0. After several washes with 20 mM Tris HCl, pH 8.0, 1M NaCl, 5mM MgCl2, 0.2% TRITON®X-100 and 1 mM PMSF, immunoprecipitates were separated over 8% PAGE and subjected to autoradiography. A band of appropriate molecular weight was present only in lysates immunoprecipitated with anti p75^NTR antibodies and not lysates immunoprecipitated with irrelevant mouse IgG.

Series [4] has as its target T1, p75^NTR. As to the kind of experiment: competition for 125I labeled β-amyloid 1-40 binding on p75NTR-NIH 3T3 cells. The following applies: NGF 100 ng/ml; 2 hours at 4° C. An excerpt:
After rinsing in PBS, cells were lysed in 1N NaOH and equal amounts of protein from cell lysates were subject to counting.
[…] (SEQ ID NO: 4). Lysates from 1.5×10^5 cells were subjected to counting.

Series [5] has as its target T1, p75^NTR. As to the kind of experiment: receptor affinity for p75NTR. The class given is binding.
[6] abbreviates: ≧25 μM, compared to control cultures.
[7] abbreviates: NGF supplementation, preliminary data.

For “mutant NGF: NGF in which lysine (K) at position 34 is replaced by alanine (A)”, the “lower affinity of binding to p75NTR” value in the series with p75^NTR [1] is 50%.
Take “CTCCCACTCGTCATTCGAC (all phosphorothioate, sugars by position and methylation of C not given here) [anti-sense oligonucleotides, anti p75NTR anti sense phosphothioate oligonucleotides directed against the 3′ end of the p75NTR coding region]”: the “p75NTR expression (immunohistochemical analysis)” value in the series on p75^NTR [2] (10 μM oligonucleotide, melanocytes UV irradiated with 25 mJ/cm^2) is “not expressed”. Also, the “appearance of cells within 24 hours after irradiation” value is listed as “appear as healthy as cells provided NGF lacking p75^NTR” in the series on p75^NTR [2] (diluent instead of NGF) and “do not appear as healthy or numerous as cells expressing both receptors in the presence of NGF” with p75^NTR [2] (with 50 ng/ml NGF).
Regarding “25-35: β-amyloid peptide fragment of amino acid residues 25-35 (GSNKGAIIGLM)”, in the series on Bax, the “increased Bax level as compared to the 40-1 peptide” value is 160% and the Bax induction is recorded as 3 fold.
Regarding “β-amyloid 1-40: HPLC-purified β-amyloid fragment corresponding to amino acids 1-40”, in the series with normal human melanocytes (0-50 μM, three to five days after addition), the “effect on cell yield” value is reported as “dose dependent decrease of cell yield”. Besides, the “decrease in cell yield” value in the series on normal human melanocytes (25-30 uM, compared to cell yield before β-amyloid addition (100%)) is given as 59%±17%. In the series with normal human melanocytes (low concentrations (≦1 μM)), the dendrite outgrowth result is “extensive outgrowth of dendrites”. Also, the “decrease of melanocyte yield” value with normal human melanocytes (within 3-5 days, total of four experiments) is on record as > 50%. Further, the “proportion of apoptotic cells” value in the series on normal human melanocytes (setting [6]) was “significantly increases the proportion of apoptotic cells”. Also, in the series with Bax, the “increased Bax level as compared to the 40-1 peptide” value was 270% and the Bax induction was determined as 3 fold. For the same substance, the “upregulation of Bax protein expression” value in the series with Bax (setting [6]) is “approximately three fold”. Also, the “percent of live cells (spread)” value in the series on melanocytes (25 μM β-amyloid 1-40 and diluent) came to 77±8.5%. The “cell yield compared to all other cultures” value with p75^NTR 3T3 cells (200 nM, serum free medium, up to 120 hours) is on record as “prominent decrease of cell yield”. In addition, the “reduction of cell yields” value with p75^NTR 3T3 cells (β-amyloid 200 nM) is ~60%. Moreover, the “binding to p75NTR (autoradiogram of immunoprecipitates)” value with p75^NTR [3] is given as “protein band of 75-80 kD in size only in lysates immunoprecipitated with anti p75^NTR antibodies”.
With “NGF: Nerve growth factor, physiologic ligand for p75NTR”, in the series with melanocytes (25 μM β-amyloid 1-40 and 50 ng/ml NGF), the “percent of live cells (spread)” value was determined as 96±1.4%. The “cell yields of β-amyloid-supplemented melanocytes” value with melanocytes (NGF added, within 3-5 days) is reported as “enhanced cell yields”. Also, in the series on melanocytes (setting [7]), the Bcl-2 levels entry is “increases Bcl-2 levels” and the “β-amyloid-induced Bax upregulation” value is recorded as “decreases the β-amyloid-induced Bax upregulation”. Further, the “maximum inhibition of 125I labeled β-amyloid binding” value in the series with p75^NTR [4] is on record as 38%. In the series with p75^NTR [2] (with 50 ng/ml NGF), the “appearance of cells within 24 hours after irradiation” value is listed as “appear healthy”. Moreover, the “higher receptor affinity than β-amyloid” value with p75^NTR [5] is listed as 2-3 fold.
